Earlier results as cited in EP4803073A2, “METHODS AND COMPOSITIONS FOR TREATMENT OF DISORDERS AMELIORATED BY MUSCARINIC RECEPTOR ACTIVATION” (Puretech Health LLC, priority 2009, dated 2011).

Columns and labels:
[1] = double-blind placebo controlled trial
[2] = phase I and subsequent trials
[3] = clozapine-associated sialorrhea
[4] = with the anticholinergic agent glycopyrrolate; escalating amounts of RS-86
[5] = given with the muscarinic agonist xanomeline; syncope is a side effect observed with xanomeline

In the case of `CCCCCCOc1nsnc1C1=CCCN(C)C1` [xanomeline], the alleviation of schizophrenia [1] is listed as “alleviation of schizophrenia was observed” and the side effects [2] is listed as “unacceptable GI side effects”.
In the case of `Clc1cccc(Cl)c1N=C1NCCN1` [clonidine], the “efficacy in reducing sialorrhea” value [3] is given as “shown efficacy in reducing sialorrhea in small scale trials”.
In the case of `CCN1C(=O)CC2(CCN(C)CC2)C1=O` [RS-86], the improvement in cognition [4] is listed as “did not result in any improvement in cognition”.
For `C[N+]1(C)[C@@H]2C[C@@H](OC(=O)[C@H](CO)c3ccccc3)C[C@H]1[C@@H]1O[C@@H]12` [methscopolamine], the effect on syncope [5] is listed as “no effect on syncope”.
